Data as given in the NIST ThermoML archive (doi:10.1016/j.jct.2005.08.015).

Assay: of the first substance listed, at infinite dilution; xn = mol fraction of the nth substance listed
Conditions: Liquid, vibrating tube densimetry, x1 = 0

OCC(O)CO [glycerol] + O
Conditions | partial molar volume [m3/mol]
298.21 K, 640 kPa | 7.093e-05
298.21 K, 29800 kPa | 7.103e-05
298.22 K, 15170 kPa | 7.097e-05
318.17 K, 470 kPa | 7.205e-05
318.17 K, 14770 kPa | 7.195e-05
318.17 K, 30260 kPa | 7.194e-05
338.16 K, 440 kPa | 7.304e-05
338.16 K, 15150 kPa | 7.288e-05
338.16 K, 30360 kPa | 7.277e-05
373.13 K, 15180 kPa | 7.444e-05
373.13 K, 30110 kPa | 7.428e-05
373.14 K, 1980 kPa | 7.463e-05
408.15 K, 30120 kPa | 7.586e-05
408.16 K, 1830 kPa | 7.644e-05
408.16 K, 14970 kPa | 7.616e-05
441.99 K, 1850 kPa | 7.825e-05
442.03 K, 15670 kPa | 7.795e-05
442.13 K, 29820 kPa | 7.764e-05
473.15 K, 1960 kPa | 8e-05
473.15 K, 15740 kPa | 7.962e-05
473.16 K, 30290 kPa | 7.92e-05
498.15 K, 3000 kPa | 8.129e-05
498.15 K, 30210 kPa | 8.047e-05
498.16 K, 15930 kPa | 8.087e-05
523.15 K, 16150 kPa | 8.212e-05
523.16 K, 5030 kPa | 8.238e-05
523.16 K, 30280 kPa | 8.184e-05
548.17 K, 7070 kPa | 8.292e-05
548.18 K, 18040 kPa | 8.309e-05
548.18 K, 30570 kPa | 8.347e-05
573.14 K, 30040 kPa | 8.344e-05
573.18 K, 10150 kPa | 8.171e-05
573.19 K, 15080 kPa | 8.249e-05
573.19 K, 19940 kPa | 8.3e-05
573.25 K, 24690 kPa | 8.32e-05

CC(O)CO (stereo unspecified) [1,2-propanediol] + O
Conditions | partial molar volume [m3/mol]
298.21 K, 640 kPa | 7.123e-05
298.22 K, 15160 kPa | 7.119e-05
298.22 K, 29790 kPa | 7.112e-05
318.17 K, 500 kPa | 7.214e-05
318.17 K, 14770 kPa | 7.192e-05
318.17 K, 30140 kPa | 7.175e-05
338.16 K, 440 kPa | 7.321e-05
338.16 K, 15160 kPa | 7.291e-05
338.16 K, 30320 kPa | 7.263e-05
373.13 K, 15150 kPa | 7.509e-05
373.13 K, 29980 kPa | 7.46e-05
373.14 K, 2010 kPa | 7.548e-05
408.15 K, 29980 kPa | 7.718e-05
408.16 K, 1760 kPa | 7.843e-05
408.16 K, 15000 kPa | 7.781e-05
441.99 K, 1840 kPa | 8.185e-05
442.03 K, 15650 kPa | 8.093e-05
442.03 K, 29800 kPa | 8.01e-05
473.15 K, 1890 kPa | 8.576e-05
473.15 K, 15760 kPa | 8.445e-05
473.16 K, 30230 kPa | 8.325e-05
498.15 K, 2930 kPa | 8.947e-05
498.15 K, 15970 kPa | 8.777e-05
498.15 K, 30110 kPa | 8.627e-05
523.16 K, 4980 kPa | 9.38e-05
523.16 K, 16130 kPa | 9.172e-05
523.16 K, 30320 kPa | 8.966e-05
548.17 K, 7020 kPa | 9.914e-05
548.18 K, 18020 kPa | 9.621e-05
548.18 K, 30440 kPa | 9.367e-05
573.14 K, 30360 kPa | 9.86e-05
573.18 K, 10120 kPa | 0.000106
573.19 K, 19990 kPa | 0.0001018

OCCCO [propan-1,3-diol] + O
Conditions | partial molar volume [m3/mol]
298.22 K, 640 kPa | 7.193e-05
298.22 K, 29780 kPa | 7.167e-05
298.23 K, 15160 kPa | 7.183e-05
318.17 K, 480 kPa | 7.262e-05
318.17 K, 14770 kPa | 7.234e-05
318.17 K, 30240 kPa | 7.212e-05
338.16 K, 440 kPa | 7.345e-05
338.16 K, 15130 kPa | 7.315e-05
338.16 K, 30290 kPa | 7.289e-05
373.13 K, 30110 kPa | 7.451e-05
373.14 K, 15170 kPa | 7.496e-05
373.16 K, 1960 kPa | 7.536e-05
408.15 K, 14940 kPa | 7.727e-05
408.15 K, 30010 kPa | 7.668e-05
408.16 K, 1870 kPa | 7.783e-05
442.02 K, 1820 kPa | 8.074e-05
442.03 K, 15700 kPa | 7.994e-05
442.08 K, 29800 kPa | 7.924e-05
473.15 K, 1940 kPa | 8.402e-05
473.16 K, 15710 kPa | 8.291e-05
473.16 K, 30280 kPa | 8.188e-05
498.15 K, 15940 kPa | 8.561e-05
498.16 K, 2960 kPa | 8.701e-05
498.16 K, 30110 kPa | 8.438e-05
523.16 K, 5030 kPa | 9.047e-05
523.16 K, 16160 kPa | 8.885e-05
523.16 K, 30260 kPa | 8.723e-05
548.18 K, 7070 kPa | 9.443e-05
548.18 K, 18040 kPa | 9.233e-05
548.18 K, 30580 kPa | 9.05e-05
573.17 K, 30240 kPa | 9.414e-05
573.18 K, 10100 kPa | 9.925e-05
573.19 K, 19920 kPa | 9.645e-05

OCCO [1,2-ethanediol] + O
Conditions | partial molar volume [m3/mol]
298.21 K, 640 kPa | 5.462e-05
298.21 K, 29790 kPa | 5.452e-05
298.23 K, 15130 kPa | 5.457e-05
318.17 K, 470 kPa | 5.548e-05
318.17 K, 14770 kPa | 5.53e-05
318.17 K, 30150 kPa | 5.516e-05
338.16 K, 440 kPa | 5.63e-05
338.16 K, 15150 kPa | 5.604e-05
338.16 K, 30360 kPa | 5.584e-05
373.12 K, 30010 kPa | 5.724e-05
373.14 K, 15170 kPa | 5.754e-05
373.15 K, 1960 kPa | 5.78e-05
408.15 K, 30070 kPa | 5.89e-05
408.16 K, 1760 kPa | 5.969e-05
408.16 K, 15000 kPa | 5.932e-05
441.98 K, 1950 kPa | 6.178e-05
442.03 K, 15670 kPa | 6.123e-05
442.04 K, 29810 kPa | 6.072e-05
473.15 K, 1900 kPa | 6.408e-05
473.15 K, 30250 kPa | 6.266e-05
473.16 K, 15750 kPa | 6.337e-05
498.15 K, 15970 kPa | 6.53e-05
498.15 K, 30110 kPa | 6.448e-05
498.16 K, 2930 kPa | 6.621e-05
523.16 K, 5030 kPa | 6.856e-05
523.16 K, 16160 kPa | 6.754e-05
523.16 K, 30260 kPa | 6.653e-05
548.17 K, 7030 kPa | 7.13e-05
548.18 K, 18020 kPa | 6.994e-05
548.18 K, 30300 kPa | 6.88e-05
573.14 K, 30090 kPa | 7.119e-05
573.18 K, 10040 kPa | 7.399e-05
573.19 K, 15080 kPa | 7.318e-05
573.19 K, 19910 kPa | 7.25e-05
573.23 K, 24730 kPa | 7.182e-05
